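How tested: cells in 96-well plates exposed to compound for 48 hours at five concentrations. TGI denotes the concentration required for complete inhibition of growth.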
How the values were obtained:
Experiment in all cases: NCI tumour cell line growth inhibition, 48 h
HCC-2998 colon = tested on: HCC-2998 colon
K-562 leukemia = tested on: K-562 leukemia
SF-268 CNS = tested on: SF-268 CNS
TK-10 renal = tested on: TK-10 renal
SK-OV-3 ovarian = tested on: SK-OV-3 ovarian
LXFL 529 NSCLC = tested on: LXFL 529 NSCLC
NCI-H522 lung = tested on: NCI-H522 lung
U251 CNS = tested on: U251 CNS
SK-MEL-5 melanoma = tested on: SK-MEL-5 melanoma
MALME-3M melanoma = tested on: MALME-3M melanoma
OVCAR-5 ovarian = tested on: OVCAR-5 ovarian
LOX IMVI melanoma = tested on: LOX IMVI melanoma
SNB-19 CNS = tested on: SNB-19 CNS
SNB-78 CNS = tested on: SNB-78 CNS
RXF 393 renal = tested on: RXF 393 renal
CCRF-CEM leukemia = tested on: CCRF-CEM leukemia
A549 NSCLC = tested on: A549 NSCLC
CAKI-1 renal = tested on: CAKI-1 renal
DLD-1 colon = tested on: DLD-1 colon
SR leukemia = tested on: SR leukemia
XF 498 CNS = tested on: XF 498 CNS
M19-MEL melanoma = tested on: M19-MEL melanoma
NCI-H23 lung = tested on: NCI-H23 lung
ACHN renal = tested on: ACHN renal
HOP-92 NSCLC = tested on: HOP-92 NSCLC
UO-31 renal = tested on: UO-31 renal
SF-539 CNS = tested on: SF-539 CNS
EKVX NSCLC = tested on: EKVX NSCLC
SN12C renal = tested on: SN12C renal
OVCAR-4 ovarian = tested on: OVCAR-4 ovarian
OVCAR-3 ovarian = tested on: OVCAR-3 ovarian
IGROV1 ovarian = tested on: IGROV1 ovarian
NCI-H460 lung = tested on: NCI-H460 lung
SW-620 colon = tested on: SW-620 colon
DMS 114 small cell lung = tested on: DMS 114 small cell lung
786-0 renal = tested on: 786-0 renal
HL-60(TB) leukemia = tested on: HL-60(TB) leukemia
M14 melanoma = tested on: M14 melanoma
RPMI-8226 leukemia = tested on: RPMI-8226 leukemia
MOLT-4 leukemia = tested on: MOLT-4 leukemia
HCT-116 colon = tested on: HCT-116 colon
OVCAR-8 ovarian = tested on: OVCAR-8 ovarian
NCI-H226 lung = tested on: NCI-H226 lung
SF-295 CNS = tested on: SF-295 CNS
SK-MEL-28 melanoma = tested on: SK-MEL-28 melanoma
KM12 colon = tested on: KM12 colon
A498 renal = tested on: A498 renal
DMS 273 small cell lung = tested on: DMS 273 small cell lung
HOP-62 NSCLC = tested on: HOP-62 NSCLC
HT29 colon = tested on: HT29 colon
SNB-75 CNS = tested on: SNB-75 CNS
UACC-257 melanoma = tested on: UACC-257 melanoma
KM20L2 colon = tested on: KM20L2 colon
UACC-62 melanoma = tested on: UACC-62 melanoma
COLO 205 colon = tested on: COLO 205 colon
HCT-15 colon = tested on: HCT-15 colon
SK-MEL-2 melanoma = tested on: SK-MEL-2 melanoma
HOP-18 NSCLC = tested on: HOP-18 NSCLC
RXF-631 renal = tested on: RXF-631 renal

Measured: TGI

O=C(Cc1ccccc1)Oc1ccc2c(-c3ccccc3)c(C(=O)Nc3ccc(Cl)cc3)c(=O)oc2c1
> 100 µM: HCC-2998 colon | K-562 leukemia | SF-268 CNS | TK-10 renal | SK-OV-3 ovarian | LXFL 529 NSCLC | NCI-H522 lung | U251 CNS | SK-MEL-5 melanoma | MALME-3M melanoma | OVCAR-5 ovarian | LOX IMVI melanoma | SNB-19 CNS | SNB-78 CNS | RXF 393 renal | CCRF-CEM leukemia | A549 NSCLC | CAKI-1 renal | DLD-1 colon | SR leukemia | XF 498 CNS | M19-MEL melanoma | NCI-H23 lung | ACHN renal | HOP-92 NSCLC | UO-31 renal | SF-539 CNS | EKVX NSCLC | SN12C renal | OVCAR-4 ovarian | OVCAR-3 ovarian | IGROV1 ovarian | NCI-H460 lung | SW-620 colon | DMS 114 small cell lung | 786-0 renal | HL-60(TB) leukemia | M14 melanoma | RPMI-8226 leukemia | MOLT-4 leukemia | HCT-116 colon | OVCAR-8 ovarian | NCI-H226 lung | SF-295 CNS | SK-MEL-28 melanoma | KM12 colon | A498 renal | DMS 273 small cell lung | HOP-62 NSCLC | HT29 colon | SNB-75 CNS | UACC-257 melanoma | KM20L2 colon | UACC-62 melanoma | COLO 205 colon | HCT-15 colon

Cc1c(/C=C2\CC/C(=C\c3[nH]c(C(=O)OC(C)(C)C)c(C)c3C)C2=O)[nH]c(C(=O)OC(C)(C)C)c1C
> 100 µM: SK-MEL-2 melanoma | HCC-2998 colon | K-562 leukemia | SF-268 CNS | TK-10 renal | SK-OV-3 ovarian | LXFL 529 NSCLC | NCI-H522 lung | U251 CNS | SK-MEL-5 melanoma | MALME-3M melanoma | OVCAR-5 ovarian | LOX IMVI melanoma | SNB-19 CNS | SNB-78 CNS | RXF 393 renal | CCRF-CEM leukemia | A549 NSCLC | CAKI-1 renal | DLD-1 colon | SR leukemia | XF 498 CNS | M19-MEL melanoma | NCI-H23 lung | HOP-92 NSCLC | UO-31 renal | SF-539 CNS | HOP-18 NSCLC | EKVX NSCLC | SN12C renal | OVCAR-4 ovarian | OVCAR-3 ovarian | IGROV1 ovarian | NCI-H460 lung | SW-620 colon | DMS 114 small cell lung | 786-0 renal | HL-60(TB) leukemia | M14 melanoma | RPMI-8226 leukemia | MOLT-4 leukemia | HCT-116 colon | OVCAR-8 ovarian | NCI-H226 lung | SF-295 CNS | KM12 colon | A498 renal | DMS 273 small cell lung | HOP-62 NSCLC | HT29 colon | SNB-75 CNS | UACC-257 melanoma | KM20L2 colon | UACC-62 melanoma | COLO 205 colon | HCT-15 colon

O=C(/C=C/c1ccc(OCCCCCCCCCCOc2ccc(/C=C/C(=O)c3ccc(Cl)cc3)cc2)cc1)c1ccc(Cl)cc1
> 100 µM: SK-MEL-2 melanoma | HCC-2998 colon | K-562 leukemia | SF-268 CNS | TK-10 renal | SK-OV-3 ovarian | RXF-631 renal | NCI-H522 lung | U251 CNS | SK-MEL-5 melanoma | MALME-3M melanoma | OVCAR-5 ovarian | LOX IMVI melanoma | SNB-19 CNS | SNB-78 CNS | RXF 393 renal | CCRF-CEM leukemia | A549 NSCLC | CAKI-1 renal | DLD-1 colon | NCI-H23 lung | ACHN renal | HOP-92 NSCLC | UO-31 renal | SF-539 CNS | HOP-18 NSCLC | EKVX NSCLC | SN12C renal | OVCAR-3 ovarian | IGROV1 ovarian | NCI-H460 lung | SW-620 colon | DMS 114 small cell lung | 786-0 renal | HL-60(TB) leukemia | RPMI-8226 leukemia | MOLT-4 leukemia | OVCAR-8 ovarian | NCI-H226 lung | SF-295 CNS | SK-MEL-28 melanoma | KM12 colon | A498 renal | DMS 273 small cell lung | HOP-62 NSCLC | HT29 colon | SNB-75 CNS | UACC-257 melanoma | KM20L2 colon | UACC-62 melanoma | COLO 205 colon | HCT-15 colon

Source: PubChem BioAssay (NCI)
